Laboratory results published in patent publication EP3696177A1, “HETEROCYCLIC COMPOUNDS FOR THE CONTROL OF INVERTEBRATE PESTS” (BASF SE, priority 2019, dated 2020).

What was measured:
Format in all cases: in vivo
Plutella xylostella = test: Diamond back moth (Plutella xylostella) cabbage leaf disc dip test; settings: foliar, 72 h, read-out: mortality in comparison with untreated controls
Description: The active compound is dissolved at the desired concentration in a mixture of 1:1 (vol:vol) distilled water: acetone. Surfactant (Kinetic) is added at a rate of 0.01% (vol/vol). The test solution is pre-pared at the day of use.
Cabbage leaf discs (60mm in diameter) are dipped in test solution and air-dried. Treated leaves are placed in petri dishes lined with moistened filter paper and inoculated with ten 3rd instar larvae. Mortality is recorded 72 hours after treatment. Feeding damage is also recorded using a scale of 0-100%.

Aedes aegypti = test: whole plant or invertebrate; settings: 48 h, A. aegypti larvae, incubated 2 days, read-out: mortality in comparison with untreated controls (larval mortality)
Description: For evaluating control of yellow fever mosquito (Aedes aegypti) the test unit consisted of 96-well-microtiter plates containing 200µl of tap water per well and 5-15 freshly hatched A. aegypti larvae.
The active compounds were formulated using a solution containing 75% (v/v) water and 25% (v/v) DMSO. Different concentrations of formulated compounds or mixtures were sprayed onto the insect diet at 2.5µl, using a custom built micro atomizer, at two replications.
After application, microtiter plates were incubated at 28 + 1°C, 80 + 5 % RH for 2 days. Larval mortality was then visually assessed.

Myzus persicae = test: Green peach aphid (Myzus persicae) artificial diet/membrane systemic test; settings: 72 h, read-out: mortality in comparison with untreated controls
Source text: For evaluating control of green peach aphid (Myzus persicae) through systemic means the test unit consisted of 96-well-microtiter plates containing liquid artificial diet under an artificial membrane.
The compounds were formulated using a solution containing 75% v/v water and 25% v/v DMSO. Different concentrations of formulated compounds were pipetted into the aphid diet, using a cus-tom built pipetter, at two replications.
After application, 5 - 8 adult aphids were placed on the artificial membrane inside the microtiter plate wells. The aphids were then allowed to suck on the treated aphid diet and incubated at about 23 + 1°C and about 50 + 5 % relative humidity for 3 days. Aphid mortality and fecundity was then visually assessed.

Megoura viciae = test: Vetch aphid (Megoura viciae) broad bean leaf disk test; settings: foliar, 120 h, read-out: mortality in comparison with untreated controls
Description: For evaluating control of vetch aphid (Megoura viciae) through contact or systemic means the test unit consisted of 24-well-microtiter plates containing broad bean leaf disks.
The compounds were formulated using a solution containing 75% v/v water and 25% v/v DMSO. Different concentrations of formulated compounds were sprayed onto the leaf disks at 2.5 µl, us-ing a custom built micro atomizer, at two replications.
After application, the leaf disks were air-dried and 5 - 8 adult aphids placed on the leaf disks in-side the microtiter plate wells. The aphids were then allowed to suck on the treated leaf disks and incubated at about 23 + 1°C and about 50 + 5 % relative humidity for 5 days. Aphid mortality and fecundity was then visually assessed.

Anthonomus grandis = test: Boll weevil (Anthonomus grandis) insect diet microtiter plate test; settings: 120 h, read-out: mortality in comparison with untreated controls (egg and larval mortality)
Description: For evaluating control of boll weevil (Anthonomus grandis) the test unit consisted of 96-well-microtiter plates containing an insect diet and 5-10 A. grandis eggs.
The compounds were formulated using a solution containing 75% v/v water and 25% v/v DMSO. Different concentrations of formulated compounds were sprayed onto the insect diet at 5 µl, using a custom built micro atomizer, at two replications.
After application, microtiter plates were incubated at about 25 + 1°C and about 75 + 5 % relative humidity for 5 days. Egg and larval mortality was then visually assessed.

Caenorhabditis elegans = Caenorhabditis elegans liquid diet microtiter plate test; settings: 96 h, read-out: mortality in comparison with untreated controls (nematode motility (mortality))
Description: For evaluating control of Caenorhabditis elegans through contact or systemic means the test unit consisted of 96-well-microtiter plates containing a liquid diet.
The compounds or mixtures were formulated using a solution containing 75% water and 25% DMSO. Different concentrations of formulated compounds were sprayed into the microtiter plate wells at 5µl per well, using a custom built micro atomizer, at two replications. Mixed instar 60-100 C. elegans were transferred into the micro-titer plate wells. After application, the nematodes were incubated at 18 + 1°C, 70 + 5 % RH for 4 days. Nematode motility (mortality) was then visually assessed.

Heliothis virescens = test: Tobacco budworm (Heliothis virescens) insect diet microtiter plate test; settings: 120 h, read-out: mortality in comparison with untreated controls (egg and larval mortality)
Description: For evaluating control of tobacco budworm (Heliothis virescens) the test unit consisted of 96-well-microtiter plates containing an insect diet and 15-25 H. virescens eggs.
The compounds were formulated using a solution containing 75% v/v water and 25% v/v DMSO. Different concentrations of formulated compounds were sprayed onto the insect diet at 10 µl, us-ing a custom built micro atomizer, at two replications.
After application, microtiter plates were incubated at about 28 + 1°C and about 80 + 5 % relative humidity for 5 days. Egg and larval mortality was then visually assessed.

dichromothrips corbetti = test: Orchid thrips floral-immersion test; settings: 72 h, read-out: mortality in comparison with untreated controls
Description: Dichromothrips corbetti adults used for bioassay are obtained from a colony maintained continu-ously under laboratory conditions. For testing purposes, the test compound is diluted in a 1:1 mix-ture of acetone:water (vol:vol), plus Kinetic at a rate of 0.01% v/v.
Thrips potency of each compound is evaluated by using a floral-immersion technique. Each orchid petal is dipped into treatment solution and allowed to dry in Petri dishes. Treated petals are placed into individual re-sealable plastic along with about 20 adult thrips. All test arenas are held under dark condition and a temperature of about 28°C for duration of the assay. The percent mor-tality is recorded 72 hours after treatment.

Tetranychus kanzawai = test: Red spider mite (Tetranychus kanzawai) spray test on cowpea beans; settings: topical, 72 h, read-out: mortality in comparison with untreated controls
Description: The active compound is dissolved at the desired concentration in a mixture of 1:1 (vol:vol) distilled water: acetone. Add surfactant (Kinetic) is added at a rate of 0.01% (vol/vol). The test solution is prepared at the day of use.
Potted cowpea beans of 4-5 days of age are cleaned with tap water and sprayed with 1-2 ml of the test solution using air driven DeVilbiss® hand atomizer at 20- 30 psi (≈ 1,38 to 2,07 bar). The treated plants are allowed to air dry and afterwards inoculated with 30 or more mites by clipping a cassava leaf section from rearing population. Treated plants are placed inside a holding room at about 25-26°C and about 65-70% relative humidity. Estimate percent mortality is assessed 72 hours after treatment.

Nephotettix virescens = test: Rice green leafhopper (Nephotettix virescens) spray test on rice seedlings; settings: adults, after 72 hours, read-out: mortality in comparison with untreated controls
Description: Four to five-week old rice seedlings with cut upper leaf portion are cleaned and washed 24 hours before spraying. The active compounds are formulated in 1:1 acetone:water (vol:vol), and 0.01% vol/vol surfactant (Kinetic) is added. Potted rice seedlings are sprayed with 5-6 ml test solution, air dried, covered with Mylar cages and inoculated with 10 adults. Treated rice plants are kept at about 28-29°C and relative humidity of about 50-60%. Percent mortality is recorded after 72 hours.

Cc1cc(C2=NOC(c3cc(Cl)cc(Cl)c3)(C(F)(F)F)C2)ccc1C(=O)NCC1OC(=O)N(CC(F)(F)F)C1=O (centres unmarked) [Compound I-4-5]
> 75%: mortality at 300 ppm (Plutella xylostella) | mortality at 2500 ppm (Aedes aegypti) | mortality at 2500 ppm (Myzus persicae) | mortality at 2500 ppm (Megoura viciae) | mortality at 2500 ppm (Anthonomus grandis) | mortality at 2500 ppm (Caenorhabditis elegans) | mortality at 2500 ppm (Heliothis virescens) | mortality at 300 ppm (dichromothrips corbetti)

Cc1cc(C2=NOC(c3cc(Cl)cc(Cl)c3)(C(F)(F)F)C2)ccc1C(=O)NCC1OC(=O)N(CC2CC2)C1=O (centres unmarked) [Compound I-4-6]
> 75%: mortality at 300 ppm (Plutella xylostella) | mortality at 2500 ppm (Aedes aegypti) | mortality at 2500 ppm (Myzus persicae) | mortality at 2500 ppm (Megoura viciae) | mortality at 2500 ppm (Anthonomus grandis) | mortality at 2500 ppm (Caenorhabditis elegans) | mortality at 2500 ppm (Heliothis virescens) | mortality at 300 ppm (dichromothrips corbetti)

O=C(NCC1OCN(CC2CC2)C1=O)c1ccc(C2=NOC(c3cc(Cl)c(F)c(Cl)c3)(C(F)(F)F)C2)cc1Cl (centres unmarked) [Compound I-3-6]
> 75%: mortality at 300 ppm (Plutella xylostella) | mortality at 2500 ppm (Aedes aegypti) | mortality at 2500 ppm (Myzus persicae) | mortality at 2500 ppm (Megoura viciae) | mortality at 2500 ppm (Anthonomus grandis) | mortality at 2500 ppm (Heliothis virescens) | mortality at 300 ppm (dichromothrips corbetti)

Cc1cc(C2=NOC(c3cc(Cl)cc(Cl)c3)(C(F)(F)F)C2)ccc1C(=O)NCC1OCN(CC(F)(F)F)C1=O (centres unmarked) [Compound I-3-13]
> 75%: mortality at 300 ppm (Plutella xylostella) | mortality at 2500 ppm (Aedes aegypti) | mortality at 2500 ppm (Myzus persicae) | mortality at 300 ppm (Tetranychus kanzawai) | mortality at 2500 ppm (Megoura viciae) | mortality at 2500 ppm (Anthonomus grandis) | mortality at 2500 ppm (Caenorhabditis elegans) | mortality at 2500 ppm (Heliothis virescens) | mortality at 300 ppm (dichromothrips corbetti)

O=C(NCC1OCN(CC(F)(F)F)C1=O)c1ccc(C2=NOC(c3cc(Cl)cc(Cl)c3)(C(F)(F)F)C2)cc1Cl (centres unmarked) [Compound I-3-9]
> 75%: mortality at 300 ppm (Plutella xylostella) | mortality at 2500 ppm (Aedes aegypti) | mortality at 2500 ppm (Myzus persicae) | mortality at 2500 ppm (Megoura viciae) | mortality at 2500 ppm (Anthonomus grandis) | mortality at 2500 ppm (Caenorhabditis elegans) | mortality at 2500 ppm (Heliothis virescens) | mortality at 300 ppm (dichromothrips corbetti)

O=C(NCC1OCN(CC2CC2)C1=O)c1ccc(C2=NOC(c3cc(Cl)c(F)c(Cl)c3)(C(F)(F)F)C2)c2c1CCC2 (centres unmarked) [Compound I-3-2]
> 75%: mortality at 300 ppm (Nephotettix virescens) | mortality at 300 ppm (Plutella xylostella) | mortality at 2500 ppm (Aedes aegypti) | mortality at 2500 ppm (Myzus persicae) | mortality at 300 ppm (Tetranychus kanzawai) | mortality at 2500 ppm (Megoura viciae) | mortality at 2500 ppm (Anthonomus grandis) | mortality at 2500 ppm (Caenorhabditis elegans) | mortality at 2500 ppm (Heliothis virescens) | mortality at 300 ppm (dichromothrips corbetti)

O=C(NCC1OC(=O)N(CC(F)(F)F)C1=O)c1ccc(C2=NOC(c3cc(Cl)cc(Cl)c3)(C(F)(F)F)C2)cc1Cl (centres unmarked) [Compound I-4-2]
> 75%: mortality at 300 ppm (Plutella xylostella) | mortality at 2500 ppm (Aedes aegypti) | mortality at 2500 ppm (Myzus persicae) | mortality at 2500 ppm (Megoura viciae) | mortality at 2500 ppm (Anthonomus grandis) | mortality at 2500 ppm (Caenorhabditis elegans) | mortality at 2500 ppm (Heliothis virescens) | mortality at 300 ppm (dichromothrips corbetti)

O=C(NCC1OCN(CC2CC2)C1=O)c1ccc(C2=NOC(c3cc(Cl)cc(C(F)(F)F)c3)(C(F)(F)F)C2)c2c1CCC2 (centres unmarked) [Compound I-3-4]
> 75%: mortality at 300 ppm (Plutella xylostella) | mortality at 2500 ppm (Aedes aegypti) | mortality at 2500 ppm (Myzus persicae) | mortality at 2500 ppm (Megoura viciae) | mortality at 2500 ppm (Anthonomus grandis) | mortality at 2500 ppm (Heliothis virescens) | mortality at 300 ppm (dichromothrips corbetti)

O=C(NCC1OCN(CC2CC2)C1=O)c1ccc(C2=NOC(c3cc(Cl)cc(Cl)c3)(C(F)(F)F)C2)cc1Cl (centres unmarked) [Compound I-3-10]
> 75%: mortality at 300 ppm (Plutella xylostella) | mortality at 2500 ppm (Aedes aegypti) | mortality at 2500 ppm (Myzus persicae) | mortality at 2500 ppm (Anthonomus grandis) | mortality at 2500 ppm (Caenorhabditis elegans) | mortality at 2500 ppm (Heliothis virescens) | mortality at 300 ppm (dichromothrips corbetti)

Cc1cc(C2=NOC(c3cc(Cl)cc(Cl)c3)(C(F)(F)F)C2)ccc1C(=O)NCC1OCN(CC2CC2)C1=O (centres unmarked) [Compound I-3-14]
> 75%: mortality at 300 ppm (Plutella xylostella) | mortality at 2500 ppm (Aedes aegypti) | mortality at 2500 ppm (Myzus persicae) | mortality at 300 ppm (Tetranychus kanzawai) | mortality at 2500 ppm (Megoura viciae) | mortality at 2500 ppm (Anthonomus grandis) | mortality at 2500 ppm (Caenorhabditis elegans) | mortality at 2500 ppm (Heliothis virescens) | mortality at 300 ppm (dichromothrips corbetti)

O=C(NCC1OC(=O)N(CC2CC2)C1=O)c1ccc(C2=NOC(c3cc(Cl)cc(Cl)c3)(C(F)(F)F)C2)cc1Cl (centres unmarked) [Compound I-4-3]
> 75%: mortality at 300 ppm (Plutella xylostella) | mortality at 2500 ppm (Aedes aegypti) | mortality at 2500 ppm (Myzus persicae) | mortality at 2500 ppm (Megoura viciae) | mortality at 2500 ppm (Anthonomus grandis) | mortality at 2500 ppm (Caenorhabditis elegans) | mortality at 2500 ppm (Heliothis virescens) | mortality at 300 ppm (dichromothrips corbetti)

CCN1COC(CNC(=O)c2ccc(C3=NOC(c4cc(Cl)cc(Cl)c4)(C(F)(F)F)C3)cc2Cl)C1=O (centres unmarked) [Compound I-3-8]
> 75%: mortality at 300 ppm (Plutella xylostella) | mortality at 2500 ppm (Aedes aegypti) | mortality at 2500 ppm (Myzus persicae) | mortality at 2500 ppm (Megoura viciae) | mortality at 2500 ppm (Anthonomus grandis) | mortality at 2500 ppm (Caenorhabditis elegans) | mortality at 2500 ppm (Heliothis virescens) | mortality at 300 ppm (dichromothrips corbetti)

CN1C(=O)OC(CNC(=O)c2ccc(C3=NOC(c4cc(Cl)cc(Cl)c4)(C(F)(F)F)C3)cc2Cl)C1=O (centres unmarked) [Compound I-4-1, 2-chloro-4-[5-(3,5-dichlorophenyl)-5-(trifluoromethyl)-4H-isoxazol-3-yl]-N-[(3-methyl-2,4-dioxo-oxazolidin-5-yl)methyl]benzamide]
> 75%: mortality at 300 ppm (Plutella xylostella) | mortality at 2500 ppm (Myzus persicae) | mortality at 2500 ppm (Megoura viciae) | mortality at 2500 ppm (Anthonomus grandis) | mortality at 2500 ppm (Caenorhabditis elegans) | mortality at 2500 ppm (Heliothis virescens) | mortality at 300 ppm (dichromothrips corbetti)

Cc1cc(C2=NOC(c3cc(Cl)cc(Cl)c3)(C(F)(F)F)C2)ccc1C(=O)NCC1OC(=O)N(C)C1=O (centres unmarked) [Compound I-4-4]
> 75%: mortality at 300 ppm (Plutella xylostella) | mortality at 2500 ppm (Aedes aegypti) | mortality at 2500 ppm (Myzus persicae) | mortality at 300 ppm (Tetranychus kanzawai) | mortality at 2500 ppm (Megoura viciae) | mortality at 2500 ppm (Anthonomus grandis) | mortality at 2500 ppm (Caenorhabditis elegans) | mortality at 2500 ppm (Heliothis virescens) | mortality at 300 ppm (dichromothrips corbetti)
